Laboratory results: patent US12180192B2, “Modulators of THR-β and methods of use thereof” (ALIGOS THERAPEUTICS, INC., priority 2019, dated 2024)

Assays:
[1] = target: T1, human thyroid receptor beta ligand-binding domain (LBD) (Homo sapiens, UniProt P10828); assay: TR-FRET thyroid receptor beta coactivator assay (THR biochemical assay, Assay 1); details: for EC50: THR-beta, TR-FRET coactivator assay, read-out: Activity category Assay 1 (EC50, THR-beta agonist); for Emax: Table 5, Assay 1, THRβ, read-out: Activity category Assay 1 THRβ (Emax)
T1 construct: purchased Invitrogen
T1 sequence (P10828 217-461 limits assumed): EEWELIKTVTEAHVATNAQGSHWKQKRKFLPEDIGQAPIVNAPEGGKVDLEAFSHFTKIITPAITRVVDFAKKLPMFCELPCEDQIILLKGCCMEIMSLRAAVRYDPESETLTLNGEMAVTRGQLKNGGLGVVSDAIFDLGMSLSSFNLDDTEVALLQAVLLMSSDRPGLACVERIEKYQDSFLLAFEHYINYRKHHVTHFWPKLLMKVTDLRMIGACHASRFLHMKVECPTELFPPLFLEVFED
In short: (§1)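 GST-tagged human TRβ or TRα LBD, 1 nM final (stated for β), with fluorescein-SRC2-2 coactivator peptide (200 nM) and Tb-anti-GST antibody (2 nM). Agonists serially diluted, 1% DMSO final. 1 h incubation at rt in the dark; TR-FRET read as rise in fluorescein and drop in terbium emission.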

[2] = target: T2, human thyroid receptor alpha ligand-binding domain (LBD) (Homo sapiens, UniProt P10827); assay: TR-FRET thyroid receptor alpha coactivator assay (THR biochemical assay, Assay 1); details: for EC50: Table 4, THR-alpha, read-out: Activity category Assay 1 (EC50, THR-alpha agonist activity); for Emax: Table 5, THRα, read-out: Activity category Assay 1 THRα (Emax)
T2 construct: purchased Invitrogen
In short: as §1

THR beta = target: T3, THR beta (Homo sapiens, UniProt P10828); assay: HEK293T THR beta/RXR luciferase reporter assay (Assay 2); assay type: cell-based; details: for Emax: HEK-293T, Table 5, Assay 2, THRβ, read-out: Activity category Assay 2 THRβ (Emax); for EC50: THR-beta, HEK293T reporter assay, read-out: Activity category Assay 2 (EC50, THR-beta agonist)
T3 construct: expressed in transfected cells; host or cells: HEK293T (ATCC CRL-3216)
T3 sequence (P10828 1-461): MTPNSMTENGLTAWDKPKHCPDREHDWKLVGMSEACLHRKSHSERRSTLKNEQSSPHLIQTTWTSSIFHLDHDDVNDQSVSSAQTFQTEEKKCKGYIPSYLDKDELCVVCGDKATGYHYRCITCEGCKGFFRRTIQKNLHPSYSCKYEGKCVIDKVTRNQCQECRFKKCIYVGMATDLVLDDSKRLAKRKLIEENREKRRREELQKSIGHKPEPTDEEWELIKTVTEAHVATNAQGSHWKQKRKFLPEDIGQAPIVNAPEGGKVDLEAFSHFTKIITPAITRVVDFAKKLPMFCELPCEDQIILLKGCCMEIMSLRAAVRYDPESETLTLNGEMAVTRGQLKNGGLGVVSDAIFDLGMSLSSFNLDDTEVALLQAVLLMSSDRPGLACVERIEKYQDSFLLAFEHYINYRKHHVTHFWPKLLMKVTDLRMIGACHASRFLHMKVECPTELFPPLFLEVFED
T3 sequence (P19793 1-462 partner): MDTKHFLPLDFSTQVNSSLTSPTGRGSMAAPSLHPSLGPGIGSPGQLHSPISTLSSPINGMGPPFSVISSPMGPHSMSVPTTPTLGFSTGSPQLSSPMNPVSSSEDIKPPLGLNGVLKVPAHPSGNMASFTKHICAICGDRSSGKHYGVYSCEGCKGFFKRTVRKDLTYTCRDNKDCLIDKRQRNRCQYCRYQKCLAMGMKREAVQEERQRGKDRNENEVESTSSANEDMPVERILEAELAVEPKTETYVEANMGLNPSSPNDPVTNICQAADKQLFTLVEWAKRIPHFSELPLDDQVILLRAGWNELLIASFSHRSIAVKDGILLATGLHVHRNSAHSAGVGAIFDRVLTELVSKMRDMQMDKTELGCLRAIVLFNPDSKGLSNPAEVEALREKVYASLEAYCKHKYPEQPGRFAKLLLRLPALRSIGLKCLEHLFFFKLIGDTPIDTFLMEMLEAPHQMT
In short: (§2)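 HEK293T cells transiently transfected with TRE-luciferase reporter, RXR, and THR alpha or THR beta plasmid; ten five-fold compound dilutions from DMSO added for 18-24 h. One-Glo luminescence read; percent agonism normalized between negative and positive controls.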

THR alpha = target: T4, THR alpha (Homo sapiens, UniProt P10827); assay: HEK293T THR alpha/RXR luciferase reporter assay (Assay 2); assay type: cell-based; details: Assay 2; for Emax: HEK-293T, Table 5, THRα, read-out: Activity category Assay 2 THRα (Emax); for EC50: Table 4, THR-alpha, read-out: Activity category Assay 2 (EC50, THR-alpha agonist activity)
T4 construct: expressed in transfected cells; host or cells: HEK293T (ATCC CRL-3216)
T4 sequence (P10827 1-410 isoform P10827-2): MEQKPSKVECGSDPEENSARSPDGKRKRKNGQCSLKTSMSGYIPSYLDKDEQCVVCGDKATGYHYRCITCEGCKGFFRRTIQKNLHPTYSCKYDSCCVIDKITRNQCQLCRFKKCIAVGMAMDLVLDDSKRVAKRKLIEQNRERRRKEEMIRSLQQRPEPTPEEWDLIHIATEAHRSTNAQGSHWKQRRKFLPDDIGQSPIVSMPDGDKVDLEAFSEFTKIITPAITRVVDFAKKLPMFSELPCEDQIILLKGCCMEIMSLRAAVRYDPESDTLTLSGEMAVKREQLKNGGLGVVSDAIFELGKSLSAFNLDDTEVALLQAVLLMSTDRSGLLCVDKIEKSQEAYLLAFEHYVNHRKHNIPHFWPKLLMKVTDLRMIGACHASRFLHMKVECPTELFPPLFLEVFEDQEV
T4 sequence (P19793 1-462 partner): T3 sequence (P19793 1-462 partner)
In short: as §2

SMILES	EC50 [1] [µM]	Emax [1] [%]	EC50 [2] [µM]	Emax [2] [%]	Emax (THR beta) [%]	EC50 (THR beta) [µM]	Emax (THR alpha) [%]	EC50 (THR alpha) [µM]
Nc1nn(-c2cc(Cl)c(Oc3cc(C(O)C4CCCC4)c(=O)[nH]n3)c(Cl)c2)c(=O)[nH]c1=O (centres unmarked) [Compound 77, 6-amino-2-[3,5-dichloro-4-([5-[cyclopentyl(hydroxy)methyl]-6-oxo-1H-pyridazin-3-yl]oxy)phenyl]-4H-1,2,4-triazine-3,5-dione]	0.05 to 0.25	< 50	0.25 to 1	50 to 75	> 75	0.05 to 0.25	> 75	0.25 to 1
CC(C)c1cc(Oc2c(Cl)cc(-n3nc(N)c(=O)[nH]c3=O)c3c2CC3)n[nH]c1=O [Compound 79, 6-Amino-2-[4-chloro-5-[(5-isopropyl-6-oxo-1H-pyridazin-3-yl)oxy]-bicyclo[4.2.0]octa-1(6),2,4-trien-2-yl]-4H-1,2,4-triazine-3,5-dione]	1 to 25	50 to 75	1 to 25	< 50	> 75	> 10	50 to 75	1 to 10
CC(C)c1cc(Oc2c(Cl)cc(-n3nc(N)c(=O)[nH]c3=O)cc2Br)n[nH]c1=O [Compound 80, 6-Amino-2-(3-bromo-5-chloro-4-((5-isopropyl-6-oxo-1,6-dihydropyridazin-3-yl)oxy)phenyl)-1,2,4-triazine-3,5(2H,4H)-dione]	< 0.05	50 to 75	0.05 to 0.25	50 to 75	> 75	< 0.05	> 75	0.05 to 0.25
CC(C)c1cc(Oc2c(Br)cc(-n3nc(N)c(=O)[nH]c3=O)cc2Br)n[nH]c1=O [Compound 81, 6-Amino-2-(3,5-dibromo-4-((5-isopropyl-6-oxo-1,6-dihydropyridazin-3-yl)oxy)phenyl)-1,2,4-triazine-3,5(2H,4H)-dione]	< 0.05	50 to 75	< 0.05	50 to 75	> 75	< 0.05	> 75	< 0.05
CC1(C)C(=O)Nc2ccc(Oc3c(Cl)cc(-n4nc(N)c(=O)[nH]c4=O)cc3Cl)cc21 [Compound 82, 6-amino-2-[3,5-dichloro-4-[(3,3-dimethyl-2-oxo-1H-indol-5-yl)oxy]phenyl]-4H-1,2,4-triazine-3,5-dione]	< 0.05	> 75	< 0.05	> 75	> 75	< 0.05	> 75	< 0.05
CC(C)C1(C)C(=O)Nc2ccc(Oc3c(Cl)cc(-n4nc(N)c(=O)[nH]c4=O)cc3Cl)cc21 (centres unmarked) [Compound 84, 6-amino-2-[3,5-dichloro-4-[(3-isopropyl-3-methyl-2-oxo-1H-indol-5-yl)oxy]phenyl]-4H-1,2,4-triazine-3,5-dione]	< 0.05	< 50	< 0.05	50 to 75	> 75	0.05 to 0.25	> 75	0.05 to 0.25
Nc1nn(-c2cc(Cl)c(Oc3ccc4c(c3)C3(CCCCC3)C(=O)N4)c(Cl)c2)c(=O)[nH]c1=O [Compound 85]	< 0.05	< 50	< 0.05	< 50	> 75		50 to 75	< 0.05
Nc1nn(-c2cc(Cl)c(Oc3cc([C@H]4C[C@H](O)C4)c(=O)[nH]n3)c(Cl)c2)c(=O)[nH]c1=O [Compound 88-A, 6-Amino-2-[3,5-dichloro-4-([6-oxo-5-[(1r,3r)-3-hydroxycyclobutyl]-1H-pyridazin-3-yl]oxy)phenyl]-4H-1,2,4-triazine-3,5-dione]	1 to 25	< 50	> 25	< 50	< 50	> 10	> 75	> 10
O=c1cnn(-c2cc(Cl)c(Oc3cc(-c4ccc5c(c4)CCCC5)c(=O)[nH]n3)c(Cl)c2)c(=O)[nH]1 [Compound 91, 2-(3,5-dichloro-4-((6-oxo-5-(5,6,7,8-tetrahydronaphthalen-2-yl)-1,6-dihydropyridazin-3-yl)oxy)phenyl)-1,2,4-triazine-3,5(2H,4H)-dione]	< 0.05	< 50	1 to 25	50 to 75	50 to 75	0.05 to 0.25	< 50	> 10
O=c1cc(-c2ccc3c(c2)CCCC3)c(Oc2c(Cl)cc(-n3ncc(=O)[nH]c3=O)cc2Cl)n[nH]1 [Compound 91-A, 2-(3,5-dichloro-4-((6-oxo-4-(5,6,7,8-tetrahydronaphthalen-2-yl)-1,6-dihydropyridazin-3-yl)oxy)phenyl)-1,2,4-triazine-3,5(2H,4H)-dione]	< 0.05	< 50	1 to 25	< 50	50 to 75	0.05 to 0.25	< 50	> 10
O=c1cc(-c2ccc3ccccc3c2)c(Oc2c(Cl)cc(-n3ncc(=O)[nH]c3=O)cc2Cl)n[nH]1 [Compound 92-A]	< 0.05	< 50	1 to 25	50 to 75	< 50	0.25 to 1	< 50	> 10
O=c1cnn(-c2cc(Cl)c(Oc3cc(-c4ccc5ccccc5c4)c(=O)[nH]n3)c(Cl)c2)c(=O)[nH]1 [Compound 92]	0.05 to 0.25	< 50	1 to 25	< 50	< 50	0.05 to 0.25	< 50	> 10
Nc1nn(-c2cc(Cl)c(Oc3cc(C45CC(C4)C5)c(=O)[nH]n3)c(Cl)c2)c(=O)[nH]c1=O [Compound 95]	0.05 to 0.25	< 50	0.25 to 1	< 50	> 75	0.05 to 0.25	< 50	0.25 to 1
Nc1nn(-c2cc(Cl)c(Oc3cc(C4CCC(F)(F)CC4)c(=O)[nH]n3)c(Cl)c2)c(=O)[nH]c1=O [Compound 97]	0.25 to 1	< 50	1 to 25	< 50	< 50	1 to 10	< 50	> 10
Nc1nn(-c2cc(Cl)c(Oc3cc(C4CCc5ccccc5C4)c(=O)[nH]n3)c(Cl)c2)c(=O)[nH]c1=O (centres unmarked) [Compound 98]	0.05 to 0.25	< 50	> 25	< 50	< 50	0.05 to 0.25	< 50	> 10
